Converted amounts (≈) assume the structure as drawn.
Experiments:
Factor Xa = target: T1, Factor Xa (Homo sapiens, UniProt P00742); experiment: Dose response assay for protease inhibitors: Factor Xa; type: biochemical; conditions: ratio versus Factor XIa
T1 construct: Factor Xa; 0.2 μM in 50% glycerol (9.2 μg/mL)

Trypsin = target: T2, Trypsin (Bos taurus, UniProt P00760); experiment: Dose response assay for protease inhibitors: trypsin; type: biochemical; conditions: ratio versus Factor XIa
T2 construct: gene PRSS1
T2 sequence (P00760 24-246): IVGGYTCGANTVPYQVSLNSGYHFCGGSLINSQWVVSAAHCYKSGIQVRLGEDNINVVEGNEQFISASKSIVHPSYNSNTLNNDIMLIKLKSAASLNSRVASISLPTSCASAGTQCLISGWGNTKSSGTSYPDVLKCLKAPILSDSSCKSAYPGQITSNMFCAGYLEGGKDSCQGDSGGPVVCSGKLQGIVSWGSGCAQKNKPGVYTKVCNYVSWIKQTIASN

[1] = Aqueous solubility in PBS pH 7.4; type: physicochemical; conditions: phosphate buffered saline, aqueous buffer, kinetic from dmso stock, PBS pH 7.4, room temperature
Description: The following procedure was used to determine the aqueous solubility of a test compound in phosphate buffered saline (PBS—NaCl 137 mM, KCl 2.7 mM, Na2HPO4 8.1 mM, KH2PO4 1.5 mM, pH 7.4) in 96-well plate format by HPLC-UV/VIS analysis. The test compound was prepared at 200 μM in PBS from a 10 mM DMSO stock solution. The final DMSO concentration was 2%. The PBS buffer samples were mixed thoroughly followed by incubation at room temperature for 24 h. At the end of the incubation, the PBS buffer samples were centrifuged and supernatants analyzed by HPLC. The aqueous solubility (μM) of the test compound in PBS was determined by comparing the peak area of the principal peak in the calibration standard (200 μM) with the peak area of the corresponding peak in each of the PBS samples. The range of the assay was approximately 0.5 μM to 200 μM. The reference compounds used in each assay were metoprolol, rifampicin, ketoconazole, phenytoin, haloperidol, simvastatin, diethylstilbestrol, and tamoxifen ranking from fully soluble (200 μM) to poorly soluble (<1 μM).

human Factor XIa = human Factor XIa (Homo sapiens, UniProt P03951); experiment: Factor XIa enzyme inhibition assay (dose response, fluorogenic AMC substrate); type: biochemical; design: Enzyme: Factor XIa; conditions: purified enzyme; substrate 50 μM, enzyme 0.25 nM; read-out: hFXIa IC50
Chain of human Factor XIa (P03951 388-625 limits assumed): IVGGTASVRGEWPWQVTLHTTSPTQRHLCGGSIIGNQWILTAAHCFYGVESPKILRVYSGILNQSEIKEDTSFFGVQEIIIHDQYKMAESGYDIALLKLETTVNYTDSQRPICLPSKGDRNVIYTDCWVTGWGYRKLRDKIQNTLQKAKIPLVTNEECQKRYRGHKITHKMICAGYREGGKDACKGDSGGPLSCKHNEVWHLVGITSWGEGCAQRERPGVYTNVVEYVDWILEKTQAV
Chain of human Factor XIa (P03951 19-387 partner limits assumed): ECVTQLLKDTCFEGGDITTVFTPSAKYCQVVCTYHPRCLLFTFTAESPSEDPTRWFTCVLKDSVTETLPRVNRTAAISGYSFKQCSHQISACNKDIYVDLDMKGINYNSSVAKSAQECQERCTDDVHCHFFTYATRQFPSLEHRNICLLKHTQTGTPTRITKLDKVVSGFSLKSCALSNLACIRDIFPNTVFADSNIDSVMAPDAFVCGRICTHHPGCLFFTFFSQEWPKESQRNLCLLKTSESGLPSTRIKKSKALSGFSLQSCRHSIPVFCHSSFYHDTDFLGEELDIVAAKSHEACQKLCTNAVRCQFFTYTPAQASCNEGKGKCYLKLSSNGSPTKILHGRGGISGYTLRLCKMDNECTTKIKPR
Procedure, shortened: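 Fluorogenic assay in 20 mM Hepes pH 7.4, 150 mM NaCl, 0.02% Tween 20 with 0.25 nM enzyme and 50 μM Glp-Pro-Arg-AMC (final). Fluorescence read every minute for 30 min at 30 °C after serial two-fold compound dilution; IC50 from four-parameter Hill fit of dose-response curves.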

T1 sequence (P00742 235-488 limits assumed): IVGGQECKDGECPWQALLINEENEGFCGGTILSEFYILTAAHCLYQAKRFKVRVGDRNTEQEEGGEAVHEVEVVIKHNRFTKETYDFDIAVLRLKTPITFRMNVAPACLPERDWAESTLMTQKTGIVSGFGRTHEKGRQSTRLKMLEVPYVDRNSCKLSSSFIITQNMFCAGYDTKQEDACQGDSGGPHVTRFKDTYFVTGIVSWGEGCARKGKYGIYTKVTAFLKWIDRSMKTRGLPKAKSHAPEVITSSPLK
T1 sequence (P00742 41-179 partner limits assumed): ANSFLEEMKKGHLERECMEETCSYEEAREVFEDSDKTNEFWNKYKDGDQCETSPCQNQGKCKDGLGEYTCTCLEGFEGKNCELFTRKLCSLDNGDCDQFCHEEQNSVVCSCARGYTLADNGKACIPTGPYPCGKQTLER

SMILES | FXa/FXIa (selectivity ratio) (Factor Xa) | Ratio: Trypsin/FXIa (Trypsin) | solubility at 24 h [1] | IC50 (human Factor XIa)
CN(C(=O)[C@@H]1[C@@H](Cc2ccnc(N)c2)C(=O)N1C(=O)NC(c1ccccc1)c1ccccc1)c1ccncc1 [Compound 82] | I (“I” indicates >500) | G (“G” indicates 1-100) | > 100 µM | < 10 nM
CC[C@@H](NC(=O)N1C(=O)[C@H](Cc2ccnc(N)c2)[C@H]1C(=O)N(C)c1ncncn1)c1ccccc1 [Compound 83] | I (“I” indicates >500) | H (“H” indicates 101-1000) | > 100 µM | < 10 nM
CC[C@@H](NC(=O)N1C(=O)[C@H](Cc2ccnc(N)c2)[C@H]1C(=O)N(C)c1ncccn1)c1ccccc1 [Compound 84] | I (“I” indicates >500) | G (“G” indicates 1-100) | > 100 µM | < 10 nM
CCC[C@@H](NC(=O)N1C(=O)[C@H](Cc2ccnc(N)c2)[C@H]1C(=O)N(C)c1ccncc1)c1ccccc1 [Compound 86] | I (“I” indicates >500) | G (“G” indicates 1-100) | > 100 µM | < 10 nM
CC[C@@H](NC(=O)N1C(=O)[C@H](Cc2ccnc(N)c2)[C@H]1C(=O)N(C)c1ccncc1)c1cccc(C)c1 [Compound 87] | I (“I” indicates >500) | G (“G” indicates 1-100) | > 100 µM | < 10 nM
CC[C@@H](NC(=O)N1C(=O)[C@H](Cc2ccnc(N)c2)[C@H]1C(=O)N(C)c1ccncc1)c1ccc(Cl)cc1 [Compound 89] | H (“H” indicates 101-1000) | G (“G” indicates 1-100) | > 100 µM | < 10 nM
CC[C@@H](NC(=O)N1C(=O)[C@H](Cc2ccnc(N)c2)[C@H]1C(=O)N(C)c1ccncc1)c1cccc(Cl)c1 [Compound 90] | I (“I” indicates >500) | G (“G” indicates 1-100) | > 100 µM | < 10 nM
CC[C@@H](NC(=O)N1C(=O)[C@H](Cc2cc(C)nc(N)c2)[C@H]1C(=O)N(C)c1ccccc1)C1CCCCC1 [Compound 91] | I (“I” indicates >500) | G (“G” indicates 1-100) | > 100 µM | < 10 nM
CC[C@@H](NC(=O)N1C(=O)[C@H](Cc2ccnc(N)c2)[C@H]1C(=O)N(C)c1ccncc1)c1ccccc1Cl [Compound 95] | I (“I” indicates >500) | G (“G” indicates 1-100) | > 100 µM | < 10 nM
CC[C@H](NC(=O)N1C(=O)[C@H](Cc2ccnc(N)c2)[C@H]1C(=O)N(C)c1ccncc1)c1ccccc1C [Compound 97] | I (“I” indicates >500) | G (“G” indicates 1-100) | > 100 µM | < 10 nM
CC[C@@H](NC(=O)N1C(=O)[C@H](Cc2ccnc(N)c2)[C@H]1C(=O)N(C)c1ccncc1)c1cccc(C#N)c1 [Compound 99] | I (“I” indicates >500) | G (“G” indicates 1-100) | > 100 µM | < 10 nM
CC[C@@H](NC(=O)N1C(=O)[C@H](Cc2ccnc(N)c2)[C@H]1C(=O)N(C)c1ccncc1)c1cccc(OC)c1 [Compound 100] | H (“H” indicates 101-1000) | G (“G” indicates 1-100) | > 100 µM | < 10 nM
CC[C@@H](NC(=O)N1C(=O)[C@H](Cc2cc(C)nc(N)c2)[C@H]1C(=O)N(C)c1ccccc1)c1cccc(Cl)c1 [Compound 120] | I (“I” indicates >500) | G (“G” indicates 1-100) | 10 to 100 µM (≈ 5.2 to 52 µg/mL) | < 10 nM
CC[C@@H](NC(=O)N1C(=O)[C@H](Cc2ccnc(N)c2)[C@H]1C(=O)N(C)c1ncccn1)c1cccc(Cl)c1 [Compound 121] | I (“I” indicates >500) | G (“G” indicates 1-100) | > 100 µM | < 10 nM
CC[C@@H](NC(=O)N1C(=O)[C@H](Cc2ccnc(NC(=O)OC(C)(C)C)c2)[C@H]1C(=O)N(C)c1ccncc1)c1cccc(Cl)c1 [Compound 127] | H (“H” indicates 101-1000) | H (“H” indicates 101-1000) | 10 to 100 µM (≈ 6.07 to 60.7 µg/mL) | 10 to 100 nM
